The values below come from patent US9586961B2, “Homopiperazine derivatives as protein tyrosine kinase inhibitors and pharmaceutical use thereof” (LEO PHARMA A/S, priority 2010, dated 2017).

One may read the EC50 as the concentration at which the effect is half-maximal.

What all share (type): biochemical
One test concerns the target T1, JAK1 (Homo sapiens, UniProt P23458).
T1 construct: JAK1 (aa 850-1154) and TYK2 (aa 871-1187) are expressed with an N-terminally fused GST-tag; GST (N); purchased Carna Biosciences, Inc; host or cells: baculovirus expression system
Nature of the test: JAK1 kinase assay (HTRF, inhibition of phosphorylation of a synthetic peptide). To be noted: catalytic domain aa 850-1154, GST-tag; 7 μM ATP (Km); read-out: JAK1 kinase inhibitory activity (EC50). The procedure, abridged: (§1)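 Baculovirus-expressed catalytic domains (GST-JAK1 aa 850-1154, GST-TYK2 aa 871-1187, His-JAK2, His-JAK3) phosphorylate 1 μM biotin-TK peptide 20-30 min at RT in 50 mM Hepes pH 7.0 with ATP at Km: JAK1 7 μM, JAK2 4 μM, JAK3 2 μM, TYK2 13 μM; 0.75% DMSO. Stopped with EDTA, HTRF read overnight.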
For orientation: Time-resolved FRET reads energy transfer from a long-lived donor to a nearby acceptor.

The target of another test is T2, JAK2 (Homo sapiens, UniProt O60674).
T2 construct: All four purified enzymes contain only the catalytic domain; His (N); purchased Carna Biosciences, Inc; host or cells: baculovirus expression system
T2 sequence (O60674 849-1124 limits assumed): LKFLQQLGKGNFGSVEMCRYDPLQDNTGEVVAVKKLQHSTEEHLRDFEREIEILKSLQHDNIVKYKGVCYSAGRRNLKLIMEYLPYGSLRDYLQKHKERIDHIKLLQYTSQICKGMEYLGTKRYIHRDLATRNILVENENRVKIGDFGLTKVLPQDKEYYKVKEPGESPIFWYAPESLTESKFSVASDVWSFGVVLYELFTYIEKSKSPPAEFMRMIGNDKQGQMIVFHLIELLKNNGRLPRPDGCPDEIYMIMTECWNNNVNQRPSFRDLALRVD
Briefly: JAK2 kinase assay (HTRF, inhibition of phosphorylation of a synthetic peptide). To be noted: catalytic domain, His-tag; 4 μM ATP (Km); read-out: JAK2 kinase inhibitory activity (EC50). Summed up:
as §1

In a further test the target is T3, JAK3 (Homo sapiens, UniProt P52333).
T3 construct: All four purified enzymes contain only the catalytic domain; His (N); purchased Carna Biosciences, Inc; host or cells: baculovirus expression system
T3 sequence (P52333 822-1111 limits assumed): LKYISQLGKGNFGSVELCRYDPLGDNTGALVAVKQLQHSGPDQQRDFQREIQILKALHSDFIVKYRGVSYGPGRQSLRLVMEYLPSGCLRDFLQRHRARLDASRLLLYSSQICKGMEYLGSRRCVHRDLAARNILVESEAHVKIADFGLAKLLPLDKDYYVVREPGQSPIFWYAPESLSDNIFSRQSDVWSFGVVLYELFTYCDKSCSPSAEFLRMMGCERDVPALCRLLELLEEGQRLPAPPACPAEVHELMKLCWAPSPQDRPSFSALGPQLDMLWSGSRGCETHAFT
Briefly: JAK3 kinase assay (HTRF, inhibition of phosphorylation of a synthetic peptide). The note with it: catalytic domain, His-tag; 2 μM ATP (Km); read-out: JAK3 kinase inhibitory activity (EC50). Summed up:
as §1

The next test addresses T4, TYK2 (Homo sapiens, UniProt P29597).
T4 construct: JAK1 (aa 850-1154) and TYK2 (aa 871-1187) are expressed with an N-terminally fused GST-tag; GST (N); purchased Carna Biosciences, Inc; host or cells: baculovirus expression system
T4 sequence (P29597 871-1187): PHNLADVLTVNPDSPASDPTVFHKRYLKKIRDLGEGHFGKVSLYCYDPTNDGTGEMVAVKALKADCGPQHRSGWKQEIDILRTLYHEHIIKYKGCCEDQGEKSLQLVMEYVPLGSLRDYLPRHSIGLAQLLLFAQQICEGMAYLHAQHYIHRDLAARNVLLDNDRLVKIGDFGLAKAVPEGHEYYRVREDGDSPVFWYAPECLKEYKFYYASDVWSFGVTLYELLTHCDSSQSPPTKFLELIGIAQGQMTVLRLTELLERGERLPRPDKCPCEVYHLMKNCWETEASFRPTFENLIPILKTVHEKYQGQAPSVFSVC
Briefly: TYK2 kinase assay (HTRF, inhibition of phosphorylation of a synthetic peptide). The note with it: catalytic domain aa 871-1187, GST-tag; 13 μM ATP (Km); read-out: TYK2 kinase inhibitory activity (EC50). Here is the method: JAK1, JAK2, JAK3 and TYK2 Kinase Assays:
Human baculovirus-expressed JAK1, 2, 3 and TYK2 were purchased from Carna Biosciences, Inc. All four purified enzymes contain only the catalytic domain. JAK1 (aa 850-1154) and TYK2 (aa 871-1187) are expressed with an N-terminally fused GST-tag, and JAK2 and JAK3 with an N-terminally fused His-tag. Inhibition of phosphorylation of a synthetic peptide was measured in an HTRF-based assay using the TK substrate-Biotin from the CisbioHTRFKinEASE TK kit. First, 2 μl of TK solution (TK substrate-biotin in kinase buffer [1× enzymatic buffer from HTRFKinEASE TK kit, 1 mM DTT]) is added to a plate containing 1 μl prediluted compound (final assay concentration DMSO: 0.75%). Then, 5 μl kinase-ATP mix (prepared in kinase buffer) is added to the wells and the plates are incubated at RT for 20-30 min. For all four kinases a concentration of ATP that corresponded to the Km for ATP was used. The final concentrations of buffers, substrate, kinase and ATP were: JAK1: 50 mMHepes buffer pH 7.0, 0.01% BSA, 10 mM MgCl2, 1 mM DTT, 7 μM ATP, 50 nMSEB, 1 μM TK Substrate-Biotin and 5 ng JAK1; JAK2: 50 mM Hepes buffer pH 7.0, 0.01% BSA, 5 mM MgCl2, 1 mM DTT, 4 μM ATP, 1 μM TK Substrate-Biotin and 0.1 ng JAK2; JAK3: 50 mMHepes buffer pH 7.0, 0.01% BSA, 5 mM MgCl2, 1 mM DTT, 2 μM ATP, 1 μM TK Substrate-Biotin and 0.3 ng JAK3; TYK2: 50 mMHepes buffer pH 7.0, 0.01% BSA, 5 mM MgCl2, 1 mM DTT, 13 μM ATP, 50 nMSEB, 1 μM TK Substrate-Biotin and 0.8 ng TYK2. Thereafter, the kinase reaction is stopped by adding 4 μl detection mix (final concentrations: 50 mM Hepes buffer pH 7.0, 0.01% BSA, 0.8 M KF, 20 mM EDTA, 42 nM Streptavidin-XL665 and 1:400 STKAbCryptate) and the plates are incubated overnight in the dark. The HTRF signal is read using an Envision plate reader.

T1 sequence (P23458 850-1154): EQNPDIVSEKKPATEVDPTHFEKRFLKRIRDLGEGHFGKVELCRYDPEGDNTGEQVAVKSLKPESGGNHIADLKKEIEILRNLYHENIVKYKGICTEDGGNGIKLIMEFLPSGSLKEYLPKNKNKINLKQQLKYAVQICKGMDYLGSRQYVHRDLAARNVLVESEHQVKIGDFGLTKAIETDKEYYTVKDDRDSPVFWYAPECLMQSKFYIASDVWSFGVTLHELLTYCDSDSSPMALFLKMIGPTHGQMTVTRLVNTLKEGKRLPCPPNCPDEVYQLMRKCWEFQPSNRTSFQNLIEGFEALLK

For the compound `CCC1=NOC(C(=O)N2CCCN(c3ncnc4[nH]ccc34)CC23CC3)C1` (racemic) [Example 123, (3-ethyl-4,5-dihydroisoxazol-5-yl)-[5-(7H-pyrrolo[2,3-d]pyrimidin-4-yl)-5,9-diazaspiro[2.6]nonan-9-yl]methanone], the EC50 on JAK1 is 100 to 1000 nM; at JAK2, 100 to 1000 nM; at JAK3, 100 to 1000 nM; at TYK2 it was more than 1000 nM.
On to `N#CCCC(=O)N1CCN(c2ncnc3[nH]ccc23)CC2(CC2)C1` [Example 1, 4-Oxo-4-[8-(7H-pyrrolo[2,3-d]pyrimidin-4-yl)-5,8-diazaspiro[2.6]non-5-yl]butyronitrile], for which the EC50 is less than 100 nM on JAK1, less than 100 nM on JAK2, 100 to 1000 nM on JAK3 and 100 to 1000 nM at TYK2.
As for `COc1cccc(C(=O)N2CCN(c3ncnc4[nH]ccc34)CC3(CC3)C2)c1OC` [Example 2, (2,3-Dimethoxyphenyl)-[8-(7H-pyrrolo[2,3-d]pyrimidin-4-yl)5,8-diazaspiro[2.6]non-5-yl]methanone], the EC50 at JAK1, at JAK2, on JAK3 and at TYK2 was more than 1000 nM each time.
`N#Cc1cccc(C(=O)N2CCN(c3ncnc4[nH]ccc34)CC3(CC3)C2)c1` [Example 3, 3-[8-(7H-pyrrolo[2,3-d]pyrimidin-4-yl)-5,8-diazaspiro[2.6]nonane-5-carbonyl]benzonitrile]: the concentration giving a half-maximal response (EC50) at JAK1 is 100 to 1000 nM; on JAK2, 100 to 1000 nM; at JAK3 it was more than 1000 nM; on TYK2, more than 1000 nM.
In the case of `COc1ncccc1C(=O)N1CCN(c2ncnc3[nH]ccc23)CC2(CC2)C1` [Example 4, (2-Methoxypyridin-3-yl)-[8-(7H-pyrrolo[2,3-d]pyrimidin-4-yl)-5,8-diazaspiro[2.6]non-5-yl]methanone], the 50% effective concentration (EC50) at JAK1, on JAK2, on JAK3 and on TYK2 was more than 1000 nM each time.
As for `N#CCC(=O)N1CCN(c2ncnc3[nH]ccc23)CC2(CC2)C1` [Example 5, 3-oxo-3-[8-(7H-pyrrolo[2,3-d]pyrimidin-4-yl)-5,8-diazaspiro[2.6]non-5-yl]propionitrile], the half-maximal effective concentration (EC50) at JAK1 is less than 100 nM; at JAK2 it was less than 100 nM; on JAK3, less than 100 nM; at TYK2, 100 to 1000 nM.
On to `CC(=O)N1CCC(C(=O)N2CCN(c3ncnc4[nH]ccc34)CC3(CC3)C2)CC1` [Example 6, 1-{4-[8-(7H-pyrrolo[2,3-d]pyrimidin-4-yl)-5,8-diazaspiro[2.6]nonane-5-carbonyl]piperidin-1-yl}ethanone], for which the EC50 on JAK1 was 100 to 1000 nM; at JAK2, 100 to 1000 nM; at JAK3 it was more than 1000 nM; on TYK2 it was more than 1000 nM.
With `N#Cc1ccccc1C(=O)N1CCN(c2ncnc3[nH]ccc23)CC2(CC2)C1` [Example 7, 2-[8-(7H-pyrrolo[2,3-d]pyrimidin-4-yl)-5,8-diazaspiro[2.6]nonane-5-carbonyl]benzonitrile], the half-maximal effective concentration (EC50) at JAK1 is more than 1000 nM; at JAK2, 100 to 1000 nM; on JAK3, more than 1000 nM; at TYK2, more than 1000 nM.
With `N#Cc1ccc2[nH]c(C(=O)N3CCN(c4ncnc5[nH]ccc45)CC4(CC4)C3)cc2c1` [Example 8, 2-[8-(7H-pyrrolo[2,3-d]pyrimidin-4-yl)-5,8-diazaspiro[2.6]nonane-5-carbonyl]-1H-indole-5-carbonitrile], the EC50 at JAK1 is less than 100 nM; at JAK2 it was 100 to 1000 nM; on JAK3, 100 to 1000 nM; on TYK2, more than 1000 nM.
On to `N#Cc1cccc(CC(=O)N2CCN(c3ncnc4[nH]ccc34)CC3(CC3)C2)c1` [Example 9, 3-{2-oxo-2-[8-(7H-pyrrolo[2,3-d]pyrimidin-4-yl)-5,8-diazaspiro[2.6]non-5-yl]ethyl}benzonitrile], for which the concentration for a half-maximal effect (EC50) was 100 to 1000 nM at JAK1, less than 100 nM on JAK2, 100 to 1000 nM at JAK3 and more than 1000 nM at TYK2.
Regarding `N#Cc1ccc(CC(=O)N2CCN(c3ncnc4[nH]ccc34)CC3(CC3)C2)cc1` [Example 10, 4-{2-oxo-2-[8-(7H-pyrrolo[2,3-d]pyrimidin-4-yl)-5,8-diazaspiro[2.6]non-5-yl]ethyl}benzonitrile], the EC50 is less than 100 nM at JAK1, less than 100 nM on JAK2, less than 100 nM at JAK3 and 100 to 1000 nM on TYK2.
For the compound `CC(C)(C#N)C(=O)N1CCN(c2ncnc3[nH]ccc23)CC2(CC2)C1` [Example 11, 2,2-Dimethyl-3-oxo-3-[8-(7H-pyrrolo[2,3-d]pyrimidin-4-yl)-5,8-diazaspiro[2.6]non-5-yl]propionitrile], the EC50 was more than 1000 nM at JAK1, 100 to 1000 nM on JAK2, 100 to 1000 nM at JAK3 and more than 1000 nM at TYK2.
`CC(C)(C(=O)N1CCN(c2ncnc3[nH]ccc23)CC2(CC2)C1)c1ccc(Cl)cc1` [Example 269, 2-(4-chlorophenyl)-2-methyl-1-[5-(7H-pyrrolo[2,3-d]pyrimidin-4-yl)-5,8-diazaspiro[2.6]nonan-8-yl]propan-1-one]: the EC50 on JAK1, on JAK2 and on JAK3 was 100 to 1000 nM throughout.
With `O=C(Cc1ccc(Cl)cc1Cl)N1CCN(c2ncnc3[nH]ccc23)CC2(CC2)C1` [Example 270, 2-(2,4-dichlorophenyl)-1-[5-(7H-pyrrolo[2,3-d]pyrimidin-4-yl)-5,8-diazaspiro[2.6]nonan-8-yl]ethanone], the EC50 is 100 to 1000 nM at JAK1, less than 100 nM at JAK2 and 100 to 1000 nM at JAK3.
In the case of `N#Cc1ccccc1CC(=O)N1CCN(c2ncnc3[nH]ccc23)CC2(CC2)C1` [Example 272, 2-[2-oxo-2-[5-(7H-pyrrolo[2,3-d]pyrimidin-4-yl)-5,8-diazaspiro[2.6]nonan-8-yl]ethyl]benzonitrile], the EC50 was 100 to 1000 nM on JAK1, less than 100 nM at JAK2 and 100 to 1000 nM on JAK3.
With `N#Cc1cc(CC(=O)N2CCN(c3ncnc4[nH]ccc34)CC3(CC3)C2)ccc1F` [Example 273, 2-fluoro-5-[2-oxo-2-[5-(7H-pyrrolo[2,3-d]pyrimidin-4-yl)-5,8-diazaspiro[2.6]nonan-8-yl]ethyl]benzonitrile], the half-maximal effective concentration (EC50) at JAK1 was 100 to 1000 nM; at JAK2, less than 100 nM; at JAK3, 100 to 1000 nM.
Consider `CC(C(=O)N1CCN(c2ncnc3[nH]ccc23)CC2(CC2)C1)c1ccccc1` (stereo not drawn) [Example 275, 2-phenyl-1-[5-(7H-pyrrolo[2,3-d]pyrimidin-4-yl)-5,8-diazaspiro[2.6]nonan-8-yl]propan-1-one], for which the 50% effective concentration (EC50) was 100 to 1000 nM at JAK1, less than 100 nM at JAK2 and 100 to 1000 nM on JAK3.
As for `CC(=O)Nc1ccc(CC(=O)N2CCN(c3ncnc4[nH]ccc34)CC3(CC3)C2)cc1` [Example 276], the figures for the 50% effective concentration (EC50) on JAK1, at JAK2 and at JAK3 were 100 to 1000 nM, 100 to 1000 nM and more than 1000 nM, respectively.
Regarding `c1ccc(CN2CCCN(c3ncnc4[nH]ccc34)CC23CC3)cc1` [Example 280, 4-(9-benzyl-5,9-diazaspiro[2.6]nonan-5-yl)-7H-pyrrolo[2,3-d]pyrimidine], the EC50 at JAK1 is more than 1000 nM; on JAK2, 100 to 1000 nM; at JAK3 it was more than 1000 nM.
